Experimental data from BigSolDB 2.1.

O=S(=O)([O-])Oc1ccc(C(c2ccc(OS(=O)(=O)[O-])cc2)c2ccccn2)cc1.[Na+].[Na+]
solubility (mole fraction)
Conditions	in DMF	in DMSO	in acetic acid	in acetonitrile	in ethanol	in methanol	in n-butanol	in n-propanol	in water
298.15 K	0.0269	0.0049	0.0014	0.0001	0.0011	0.0096	0.0001	0.0002	0.0215
303.15 K	0.0321	0.0058	0.0019	0.0001	0.0015	0.0116	0.0002	0.0004	0.0252
308.15 K	0.0387	0.0069	0.0025	0.0003	0.0021	0.0142	0.0005	0.0007	0.0299
313.15 K	0.0463	0.0083	0.0034	0.0005	0.003	0.0178	0.0011	0.0014	0.0347
318.15 K	0.0561	0.0099	0.0046	0.001	0.0041	0.0213	0.0022	0.0028	0.0398
